Assay results published in patent publication US8436178B2, “Imidazoquinolines with immuno-modulating properties” (AstraZeneca AB, priority 2007, dated 2013).

Target: T1, human TLR7 (Homo sapiens, UniProt Q9NYK1)
T1 construct: expressed in transfected cells; host or cells: HEK293 cell line stably expressing the pNiFty2-SEAP reporter plasmid; TLR7 in pUNO vector, blasticidin selection
T1 sequence (Q9NYK1 27-1049): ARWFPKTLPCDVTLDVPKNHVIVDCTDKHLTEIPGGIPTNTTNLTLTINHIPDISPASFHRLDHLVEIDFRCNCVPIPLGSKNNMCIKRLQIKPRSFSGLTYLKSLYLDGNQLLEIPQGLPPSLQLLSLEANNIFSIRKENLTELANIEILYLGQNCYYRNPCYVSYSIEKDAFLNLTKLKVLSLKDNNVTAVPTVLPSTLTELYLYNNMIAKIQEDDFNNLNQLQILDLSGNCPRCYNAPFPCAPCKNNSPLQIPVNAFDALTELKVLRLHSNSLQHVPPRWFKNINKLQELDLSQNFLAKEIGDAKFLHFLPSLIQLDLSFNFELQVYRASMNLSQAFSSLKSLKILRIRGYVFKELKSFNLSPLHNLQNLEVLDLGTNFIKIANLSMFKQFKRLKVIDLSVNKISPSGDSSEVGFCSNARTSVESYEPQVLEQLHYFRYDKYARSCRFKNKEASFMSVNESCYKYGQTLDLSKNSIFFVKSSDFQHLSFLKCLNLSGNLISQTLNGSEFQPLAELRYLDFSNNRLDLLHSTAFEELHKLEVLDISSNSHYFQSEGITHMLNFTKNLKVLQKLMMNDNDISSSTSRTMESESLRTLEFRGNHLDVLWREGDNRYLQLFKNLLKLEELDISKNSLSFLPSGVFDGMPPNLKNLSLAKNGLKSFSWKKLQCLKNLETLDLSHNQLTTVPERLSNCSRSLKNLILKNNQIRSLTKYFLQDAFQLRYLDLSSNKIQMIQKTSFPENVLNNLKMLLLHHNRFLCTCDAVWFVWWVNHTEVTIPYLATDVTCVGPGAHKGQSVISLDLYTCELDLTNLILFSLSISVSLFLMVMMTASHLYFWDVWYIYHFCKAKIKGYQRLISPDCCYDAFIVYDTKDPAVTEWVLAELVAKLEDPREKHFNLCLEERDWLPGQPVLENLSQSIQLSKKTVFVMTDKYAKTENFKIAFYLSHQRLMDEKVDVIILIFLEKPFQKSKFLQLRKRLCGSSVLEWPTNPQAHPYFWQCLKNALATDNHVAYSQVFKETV
Test: Human TLR7 assay (SEAP reporter in HEK293 cells)
Assay type: cell-based
Settings: SEAP induction in HEK293 cells expressing human TLR7, overnight incubation at 37° C., 0.1% DMSO

| EC50 [nM] | SMILES |
| --- | --- |
| 251 | CCCCc1nc2c(N)nc3ccccc3c2n1CCCN(Cc1cccc(CC(=O)OC)c1)C(=O)CN1CCCN(C)CC1 [Example 62, Methyl 2-(3-((N-(3-(4-amino-2-butyl-1H-imidazo[4,5-c]quinolin-1-yl)propyl)-2-(4-methyl-1,4-diazepan-1-yl)acetamido)methyl)phenyl)acetate] |
| 501 | CCCCc1nc2c(N)nc3ccccc3c2n1CCCN(Cc1cccc(CC(=O)OC)c1)C(=O)CN1CCCN(C(C)=O)CC1 [Example 63, Methyl 2-(3-((2-(4-acetyl-1,4-diazepan-1-yl)-N-(3-(4-amino-2-butyl-1H-imidazo[4,5-c]quinolin-1-yl)propyl)acetamido)methyl)phenyl)acetate] |
| 1260 | CCCCc1nc2c(N)nc3ccccc3c2n1CCCN(Cc1cccc(CC(=O)OC)c1)C(=O)CN1CCCN(C(=O)NCC)CC1 [Example 64, Methyl 2-(3-((N-(3-(4-amino-2-butyl-1H-imidazo[4,5-c]quinolin-1-yl)propyl)-2-(4-(ethylcarbamoyl)-1,4-diazepan-1-yl)acetamido)methyl)phenyl)acetate] |
| 631 | CCCCc1nc2c(N)nc3ccccc3c2n1CCCN(Cc1cccc(CC(=O)OC)c1)C(=O)CN1CCCN(S(C)(=O)=O)CC1 [Example 65, Methyl 2-(3-((N-(3-(4-amino-2-butyl-1H-imidazo[4,5-c]quinolin-1-yl)propyl)-2-(4-(methylsulfonyl)-1,4-diazepan-1-yl)acetamido)methyl)phenyl)acetate] |
| 158 | CCCCc1nc2c(N)nc3ccccc3c2n1CCCN(Cc1ccc(CC(=O)OC)cc1)C(=O)CN1CCN(CCOC)CC1 [Example 66, Methyl 2-(4-((N-(3-(4-amino-2-butyl-1H-imidazo[4,5-c]quinolin-1-yl)propyl)-2-(4-(2-methoxyethyl)piperazin-1-yl)acetamido)methyl)phenyl)acetate] |
| 501 | CCCCc1nc2c(N)nc3ccccc3c2n1CCCN(Cc1ccc(CC(=O)OC)cc1)C(=O)CN1CCCN(C(C)=O)CC1 [Example 67, Methyl 2-(4-((2-(4-acetyl-1,4-diazepan-1-yl)-N-(3-(4-amino-2-butyl-1H-imidazo[4,5-c]quinolin-1-yl)propyl)acetamido)methyl)phenyl)acetate] |
| 501 | CCCCc1nc2c(N)nc3ccccc3c2n1CCCN(Cc1ccc(CC(=O)OC)cc1)C(=O)CN1CCCN(S(C)(=O)=O)CC1 [Example 68, Methyl 2-(4-((N-(3-(4-amino-2-butyl-1H-imidazo[4,5-c]quinolin-1-yl)propyl)-2-(4-(methylsulfonyl)-1,4-diazepan-1-yl)acetamido)methyl)phenyl)acetate] |
| 398 | CCCCc1nc2c(N)nc3ccccc3c2n1CCCN(Cc1ccc(CC(=O)OC)cc1)C(=O)CN(C)C1CCN(C(C)=O)CC1 [Example 69, Methyl 2-(4-((2-((1-acetylpiperidin-4-yl)(methyl)amino)-N-(3-(4-amino-2-butyl-1H-imidazo[4,5-c]quinolin-1-yl)propyl)acetamido)methyl)phenyl)acetate] |
| 398 | COCCc1nc2c(N)nc3ccccc3c2n1CCCN(Cc1ccc(CC(=O)OC)cc1)C(=O)CN1CCN(C)CC1 [Example 70, Methyl 2-(4-((N-(3-(4-amino-2-(2-methoxyethyl)-1H-imidazo[4,5-c]quinolin-1-yl)propyl)-2-(4-methylpiperazin-1-yl)acetamido)methyl)phenyl)acetate] |
| 200 | COCCc1nc2c(N)nc3ccccc3c2n1CCCN(Cc1ccc(CC(=O)OC)cc1)C(=O)CN1CCN(CCOC)CC1 [Example 71, Methyl 2-(4-((N-(3-(4-amino-2-(2-methoxyethyl)-1H-imidazo[4,5-c]quinolin-1-yl)propyl)-2-(4-(2-methoxyethyl)piperazin-1-yl)acetamido)methyl)phenyl)acetate] |
| 501 | COCCc1nc2c(N)nc3ccccc3c2n1CCCN(Cc1cccc(CC(=O)OC)c1)C(=O)CN1CCN(C)CC1 [Example 72, Methyl 2-(3-((N-(3-(4-amino-2-(2-methoxyethyl)-1H-imidazo[4,5-c]quinolin-1-yl)propyl)-2-(4-methylpiperazin-1-yl)acetamido)methyl)phenyl)acetate] |
